Assay results: patent US20120065257A1, “USE OF BENZO-FUSED HETEROCYLE SULFAMIDE DERIVATIVES FOR THE TREATMENT OF MIGRAINE” (priority 2006, published 2012)

Legend:
[1] = test system: KCl-induced cortical spreading depression; conditions: historical positive control, 200 mg/kg/day i.p. for 4 weeks; saline 18; p<0.05; cited from earlier work
[2] = test system: KCl-induced cortical spreading depression; assay: KCl-induced cortical spreading depression (CSD) assay as model of migraine; format: in vivo, Sprague-Dawley rats; conditions: 100 mg/kg/day p.o. for 35 days
Description: Cortical spreading depression (CSD) has been implicated in migraine and as a headache trigger, and can be evoked in experimental animals by electrical or chemical stimulation (Kunkler & Kraig, 2003; Lauritzen et al., 1982; Moskowitz, 1984).
Adult male Sprague-Dawley rats (250-600 g) were divided into two treatment groups: vehicle (0.5% methylcellulose; n=13) and Compound #8 (100 mg/kg/day, p.o.; n=7). Results were compared to historical positive controls with valproic acid at 200 mg/kg/day, i.p.
Vehicle or Compound #8 was administered orally once a day for 35 days. On the last day of treatment, rats continued to receive food and water ad libitum, and were given their daily oral dose of vehicle or Compound #8 approximately 1.5 h prior to CSD testing. Rats were anesthetized using isoflurane and intubated via a tracheotomy for mechanical ventilation. Body temperature, blood pressure and heart rate were monitored throughout the procedure to ensure homeostasis. […] The steady (DC) potential and electrocorticogram (EcoG) were recorded with glass micropipettes filled with 200 mM NaCl, […] below the dural surface. […] The number of KCL-induced CSDs was counted for 2 hours. Propagation speed was calculated from the distance (mm) between the recording electrodes 1 and 2, divided by the latency (min) between the CSDs recorded at these sites. […]

[3] = Body weight and systemic physiology monitoring during CSD testing; format: in vivo, Sprague-Dawley rats; conditions: 100 mg/kg/day p.o. for 35 days
Description: Vehicle or Compound #8 was administered orally once a day for 35 days. On the last day of treatment, rats continued to receive food and water ad libitum, and were given their daily oral dose of vehicle or Compound #8 approximately 1.5 h prior to CSD testing. Rats were anesthetized using isoflurane and intubated via a tracheotomy for mechanical ventilation. Body temperature, blood pressure and heart rate were monitored throughout the procedure to ensure homeostasis. Rats were placed in a stereotaxic frame and three burr holes were drilled under saline cooling over the right hemisphere at the following coordinates (mm from bregma): (1) posterior 4.5, lateral 2.0 (occipital cortex): KCL application; (2) posterior 0.5, lateral 2.0 (parietal cortex): recording site 1; (3) anterior 2, lateral 2 (frontal cortex): recording site 2. Dura overlying the occipital cortex was gently removed. The steady (DC) potential and electrocorticogram (EcoG) were recorded with glass micropipettes filled with 200 mM NaCl, […] below the dural surface. An Ag/AgCl reference electrode was placed subcutaneously in the neck. Following surgical preparation, the cortex was allowed to recover for 30 minutes under saline irrigation. Cortical spreading depressions were initiated by placing a cotton ball soaked with 1M KCl on the pial surface. The number of KCL-induced CSDs was counted for 2 hours. Propagation speed was calculated from the distance (mm) between the recording electrodes 1 and 2, divided by the latency (min) between the CSDs recorded at these sites.

CCCC(CCC)C(=O)O [valproate, valproic acid]
number of cortical spreading depressions [1]: 14

NS(=O)(=O)NCC1CCc2ccccc2O1 (centres unmarked) [Compound #10, Chroman-2-ylmethylsulfamide]
melting point: 100 to 101 °C

NS(=O)(=O)NCCC1COc2ccccc2O1 (centres unmarked) [Compound #16, 2-(2,3-Dihydro-benzo[1,4]dioxin-2-yl)-ethylsulfamide]
melting point: 101 to 103 °C

NS(=O)(=O)NC[C@H]1COc2cc(Cl)ccc2O1 [Compound #8, (2S)-(−)-N-(6-Chloro-2,3-dihydro-benzo[1,4]dioxin-2-ylmethyl)-sulfamide]
CSDs (2 h) ≧ 5 mV (number of KCl-induced cortical spreading depressions) ([2]; 1M KCl topical, counted for 2 hours, vehicle 16 ± 3, p=0.12, not significant): 14±3 | Propagation Speed ([2]; vehicle 3.2 ± 1, p=0.06): 2.7±0.4 mm/min | Physiological monitoring, including arterial pH, pCO2, pO2 and blood pressure, versus vehicle [3]: did not differ between the groups | Systemic Physiology: pH (arterial) ([3]; vehicle 7.44 ± 0): 7.42 ± 0.03 | Systemic Physiology: pCO2 ([3]; vehicle 38 ± 3, in mmHg (unit assumed)): 39 ± 3 | Systemic Physiology: BP ([3]; vehicle 105 ± 14, in mmHg (unit assumed)): 107 ± 18 | Systemic Physiology: pO2 ([3]; vehicle 162 ± 9, in mmHg (unit assumed)): 157 ± 18 | Body weight ([3]; vehicle 401 ± 40): 418 ± 31 g

CN(C)S(=O)(=O)NCC1COc2ccccc2O1 (racemic) [Compound #6, N-(2,3-Dihydro-benzo[1,4]dioxin-2-ylmethyl)-N′,N′ dimethylsulfamide]
melting point: 76 to 78 °C

NS(=O)(=O)NC[C@H]1COc2cc(Cl)c(Cl)cc2O1 [Compound #29, (2S)-(−)-N-(6,7 Dichloro-2,3-dihydro-benzo[1,4]dioxin-2-ylmethyl)-sulfamide]
melting point: 119 to 121 °C

CN(CC1COc2ccccc2O1)S(N)(=O)=O (racemic) [Compound #7, N-(2,3-Dihydro-benzo[1,4]dioxin-2-ylmethyl)-N-methylsulfamide]
melting point: 97 to 98 °C
